Reference: patent US20210085640A1, “ACYLATED CATECHIN POLYPHENOLS AND METHODS OF THEIR USE FOR THE TREATMENT OF CANCER” (Flagship Pioneering Innovations V, Inc., priority 2018, published 2021)

Assays:
[1] = Stability in Simulated Gastric Fluid (SGF); assay type: in vitro ADME; conditions: SGF pH 1.6 with pepsin, 1 μM, 37° C.
Method in brief: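 Compound at 1 μM (from 1 mM DMSO stock) incubated at 37 °C in SGF, pH 1.6 NaCl/HCl buffer with FaSSIF powder and 0.1 mg/mL pepsin. Aliquots quenched with an equal volume of acetonitrile at T0 and regular intervals; degradation rate by LC/MS.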

[2] = Stability in Simulated Intestinal Fluid (SIF); assay type: in vitro ADME; conditions: for Assay 2 (SIF) (% @ Remaining 4 hours): SIF pH 6.7 with pancreatin, 1 μM, 37° C.; for selective delivery to the upper intestine: conclusion drawn from Table 1 (SGF and SIF stability)
Description: SIF Stability of acylated active agents in Simulated Intestinal Fluid (SIF). This assay was used to assess the stability of an acylated active agent in a small intestine.
Phosphate buffer was prepared by dissolving 0.42 g of sodium hydroxide pellets and 3.95 g of monobasic sodium phosphate monohydrate and 6.19 g of sodium chloride in ultrapure water (MilliQ®, Millipore Sigma, Darmstadt, Germany). The pH was adjusted to 6.7 using aq. HCl and aq. NaOH, as necessary, and the solution was diluted with ultrapure water to produce 1 L of the pH 6.7 buffer.
112 mg FaSSIF powder (Biorelevant™, London, UK) was dissolved in 50 mL of the pH 6.7 buffer. 2 to 3 mL of the resulting solution were then added to 500 mg pancreatin (Millipore Sigma, Darmstadt, Germany). The resulting mixture was agitated by finger tapping the vessel containing the mixture until milky suspension formed. At this time, the remainder of the 50 mL FaSSiF/pH 6.7 buffer solution was added. The resulting suspension was flipped upside down 10 times to produce SIF, which was used fresh.
Test compounds were dissolved in DMSO stock to 1 mM. An aliquot of the DMSO stock solution was removed and diluted in the SIF media in 15 mL falcon tubes to produce a mixture with a tested compound concentration of 1 μM. A 1 mL aliquot was immediately removed and diluted once with 1 volume of acetonitrile for T0 timepoint. The mixture was sealed and agitated at 37° C. in an incubator. Aliquots (1 mL) were removed at regular intervals and immediately quenched by the addition of 1 volume of acetonitrile. The resulting samples were analyzed by LC/MS to determine degradation rates.

[3] = Fecal Incubation Stability; assay type: in vitro ADME; conditions: fecal slurry, anaerobic, 1 or 10 μM
Description: Fecal Incubation Stability. This assay was used to assess the stability of an acylated active agent in a large intestine. All experiments were performed in an anaerobic chamber containing 90% nitrogen, 5% hydrogen and 5% carbon dioxide. Fecal matter in a slurry (15% VW is added to 96 well plates containing YCFA media or other suitable media (1.6 mL). Compounds were added to each individual well to reach a final analyte concentration of 1 or 10 μM, and the material was mixed by pipetting. At set time points a sample was removed, quenched with acetonitrile, and analyzed by LC/MS.

CD4^+CD25^+ Treg cells = assay: In vivo induction of CD4+CD25+ Treg cells in high-fat diet fed mice; conditions: C57BL/6 mice fed a high-fat diet; 6% in diet ad libitum; compared to EGCG, acetate, or their combination as separate compounds
From the text: Acylated catechin polyphenols disclosed herein may be useful in modulating cancer markers and for treating cancer.

| SMILES | Assay 1 (SGF) (% Remaining @ 1 hours) [1] | Assay 2 (SIF) (% @ Remaining 4 hours) [2] | Assay 3 (% Remaining at 24 h) [3] | selective delivery to the upper intestine [2] | induction of CD4^+CD25^+ Treg cells (CD4^+CD25^+ Treg cells) |
| --- | --- | --- | --- | --- | --- |
| CCCC(=O)Oc1cc(OC(=O)CCC)c2c(c1)O[C@H](c1cc(OC(=O)CCC)c(OC(=O)CCC)c(OC(=O)CCC)c1)[C@H](OC(=O)c1cc(OC(=O)CCC)c(OC(=O)CCC)c(OC(=O)CCC)c1)C2 [Compound 1, [(2R,3R)-5,7-di(butanoyloxy)-2-[3,4,5-tri(butanoyloxy)phenyl]chroman-3-yl] 3,4,5-tri(butanoyloxy)benzoate] | C (>75% of the tested compound remaining) | C (>75% of the tested compound remaining) | C (>75% of the tested compound remaining) | – | – |
| CC(=O)Oc1cc(OC(C)=O)c2c(c1)O[C@H](c1cc(OC(C)=O)c(OC(C)=O)c(OC(C)=O)c1)[C@H](OC(=O)c1cc(OC(C)=O)c(OC(C)=O)c(OC(C)=O)c1)C2 [Compound 2, [(2R,3R)-5,7-diacetoxy-2-(3,4,5-triacetoxyphenyl)chroman-3-yl] 3,4,5-triacetoxybenzoate] | C (>75% of the tested compound remaining) | A (<25% of the tested compound remaining) | A (<25% of the tested compound remaining) | can be selectively delivered to the upper intestine | synergistic induction |
| CCC(=O)Oc1cc(OC(=O)CC)c2c(=O)c(OC(=O)CC)c(-c3ccc(OC(=O)CC)c(OC(=O)CC)c3)oc2c1 [Compound 14, [4-[4-oxo-3,5,7-tri(propanoyloxy)chromen-2-yl]-2-propanoyloxy-phenyl] propanoate] | C (>75% of the tested compound remaining) | C (>75% of the tested compound remaining) | C (>75% of the tested compound remaining) | – | – |
| CCCC(=O)O[C@@H]1[C@@H](OC(=O)CCC)[C@@H](Oc2ccc(N)cc2C(=O)O)OC[C@@H]1OC(=O)CCC [Compound 17, 5-amino-2-[(2R,3R,4S,5S)-3,4,5-tri(butanoyloxy)tetrahydropyran-2-yl]oxy-benzoic acid] | C (>75% of the tested compound remaining) | A (<25% of the tested compound remaining) | C (>75% of the tested compound remaining) | can be selectively delivered to the upper intestine | – |
| CC(=O)OC[C@H]1O[C@@H](Oc2c(C)c(C)c3c(c2C)CC[C@@](C)(CCC[C@H](C)CCC[C@H](C)CCCC(C)C)O3)[C@H](OC(C)=O)[C@@H](OC(C)=O)[C@@H]1OC(C)=O [Compound 19, [(2R,3R,4S,5R,6S)-3,4,5-triacetoxy-6-[(2R)-2,5,7,8-tetramethyl-2-[(4R,8R)-4,8,12-trimethyltridecyl]chroman-6-yl]oxy-tetrahydropyran-2-yl]methyl acetate] | C (>75% of the tested compound remaining) | C (>75% of the tested compound remaining) | C (>75% of the tested compound remaining) | – | – |
